Results published in patent US11083725B2 (priority 2014, dated 2021).

Test system: NHBE cells
Experiment: Biolog metabolic array: substrate use by NHBE cells with or without CA09 infection
Assay type: cell-based, human
[1] = Control (uninfected) NHBE cells
[2] = Virus (CA09-infected, MOI 1) NHBE cells
[3] = Virus: CA09-infected NHBE cells, MOI 1, Biolog PMM2

CC(O)C(=O)O [L-Lactic Acid (DL)]
590 nm absorbance normalized to zero hour (substrate use), 0 hr [1]: 1.00 | 590 nm absorbance normalized to zero hour (substrate use), 1 hr [1]: 1.56 | 590 nm absorbance normalized to zero hour (substrate use), 2 hr [1]: 2.01 | 590 nm absorbance normalized to zero hour (substrate use), 3 hr [1]: 2.57 | 590 nm absorbance normalized to zero hour (substrate use), 4 hr [1]: 2.66 | 590 nm absorbance normalized to zero hour (substrate use), 6 hr [1]: 1.75 | 590 nm absorbance normalized to zero hour (substrate use), 8 hr [1]: 3.21 | 590 nm absorbance normalized to zero hour (substrate use), 9 hr [1]: 3.56 | 590 nm absorbance normalized to zero hour (substrate use), 10 hr [1]: 3.63 | 590 nm absorbance normalized to zero hour (substrate use), 11 hr [1]: 4.70 | Substrate use, 590 nm absorbance normalized to zero hour, 0 hr (Control (uninfected) NHBE cells, Biolog PMM2, 0 hr): 1.00 | Substrate use, 590 nm absorbance normalized to zero hour, 1 hr (Control (uninfected) NHBE cells, Biolog PMM2, 1 hr): 1.56 | Substrate use, 590 nm absorbance normalized to zero hour, 5 hr (Control (uninfected) NHBE cells, Biolog PMM2, 5 hr): 3.09 | Substrate use, 590 nm absorbance normalized to zero hour, 7 hr (Control (uninfected) NHBE cells, Biolog PMM2, 7 hr): 2.97 | 590 nm absorbance normalized to zero hour (substrate use), 0 hr [2]: 1.00 | 590 nm absorbance normalized to zero hour (substrate use), 1 hr [2]: 1.33 | 590 nm absorbance normalized to zero hour (substrate use), 2 hr [2]: 1.66 | 590 nm absorbance normalized to zero hour (substrate use), 3 hr [2]: 2.04 | 590 nm absorbance normalized to zero hour (substrate use), 4 hr [2]: 2.11 | 590 nm absorbance normalized to zero hour (substrate use), 5 hr [2]: 2.48 | 590 nm absorbance normalized to zero hour (substrate use), 6 hr [2]: 2.68 | 590 nm absorbance normalized to zero hour (substrate use), 7 hr [2]: 2.86 | 590 nm absorbance normalized to zero hour (substrate use), 8 hr [2]: 3.04 | 590 nm absorbance normalized to zero hour (substrate use), 9 hr [2]: 3.36 | 590 nm absorbance normalized to zero hour (substrate use), 10 hr [2]: 3.49 | 590 nm absorbance normalized to zero hour (substrate use), 11 hr [2]: 3.91 | 590 nm absorbance normalized to zero hour (substrate use), 0 hr [3]: 1.00 | 590 nm absorbance normalized to zero hour (substrate use), 1 hr [3]: 1.33 | 590 nm absorbance normalized to zero hour (substrate use), 2 hr [3]: 1.66 | 590 nm absorbance normalized to zero hour (substrate use), 3 hr [3]: 2.04 | 590 nm absorbance normalized to zero hour (substrate use), 4 hr [3]: 2.11 | 590 nm absorbance normalized to zero hour (substrate use), 5 hr [3]: 2.48 | 590 nm absorbance normalized to zero hour (substrate use), 6 hr [3]: 2.68 | 590 nm absorbance normalized to zero hour (substrate use), 7 hr [3]: 2.86 | 590 nm absorbance normalized to zero hour (substrate use), 8 hr [3]: 3.04 | 590 nm absorbance normalized to zero hour (substrate use), 9 hr [3]: 3.36 | 590 nm absorbance normalized to zero hour (substrate use), 10 hr [3]: 3.49 | 590 nm absorbance normalized to zero hour (substrate use), 11 hr [3]: 3.91
